Columns and labels:
[1] = tested on: a variety of test species; experiment: Pre-emergence herbicidal activity (glasshouse, sprayed one day after sowing, evaluated after 13 days); type: in vivo; parameters: key: 5=total damage to plant; 0=no damage to plant; conditions: application pre-emergence, rate 1000 g/Ha, scale 0-5
Summary of the method: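 Sow in pots of standard soil; after one day under glasshouse conditions, spray compound (acetone/water 50:50 formulation, 0.5% Tween 20, diluted in water). Grow on at 24/16 °C, 14 h light, 65% humidity with twice-daily watering. Assess at 13 days, 0–5 damage scale.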

[2] = tested on: a variety of test species; experiment: Post-emergence herbicidal activity (glasshouse, sprayed after 8 days cultivation, evaluated after 13 days); type: in vivo; parameters: key: 5=total damage to plant; 0=no damage to plant; conditions: rate 1000 g/Ha, scale 0-5
Summary of the method: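 Pot-grown plants, 8 days after sowing, were sprayed with compound formulated in acetone/water (50:50) with 0.5% Tween 20. Glasshouse conditions 24/16° C day/night, 14 h light, 65% humidity; damage scored after 13 days on a 0 (none) to 5 (total) scale.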

Row | Compound | Pre-emergence herbicidal damage score, ABUTH [1] | Pre-emergence herbicidal damage score, ALOMY [1] | Pre-emergence herbicidal damage score, AMARE [1] | Pre-emergence herbicidal damage score, ECHCG [1] | Pre-emergence herbicidal damage score, SETFA [1] | Pre-emergence herbicidal damage score, ZEAMX [1] | ABUTH (Abutilon theophrasti) damage score, application post-emergence [2] | ALOMY (Alopecurus myosuroides) damage score, application post-emergence [2] | AMARE (Amaranthus retroflexus) damage score, application post-emergence [2] | ECHCG (Echinochloa crus-galli) damage score, application post-emergence [2] | SETFA (Setaria faberi) damage score, application post-emergence [2] | ZEAMX (Zea mays) damage score, application post-emergence [2] | melting point
1 | CC1=C(Cl)C(=O)N(c2cc(C3CC3)on2)C1O (stereo not shown) [A22] | 5 | 4 | 4 | 5 | 5 | 1 | 5 | 5 | 5 | 5 | 5 | 4 | 174 to 176 °C
2 | CC1=C(Cl)C(=O)N(c2noc(C(C)(C)C)c2Br)C1O (stereo not shown) [A23, 1-(4-bromo-5-tert-butyl-isoxazol-3-yl)-4-chloro-2-hydroxy-3-methyl-2H-pyrrol-5-one] | 5 | 4 | 5 | 5 | 3 | 3 | 5 | 5 | 5 | 5 | 5 | 4 | 158 to 160 °C
3 | CC1=C(Cl)C(=O)N(c2noc(C(C)(C)C)c2Cl)C1O (stereo not shown) [A24] | 5 | 4 | 4 | 5 | 4 | 2 | 5 | 5 | 5 | 5 | 5 | 4 | 143 to 145 °C
4 | CC1=C(Cl)C(=O)N(c2cc(C3CCCCC3)on2)C1O (stereo not shown) [A25] | 3 | 2 | 5 | 2 | 0 | 0 | 5 | 3 | 4 | 4 | 5 | 1 | 141 to 143 °C
5 | CC1=C(Cl)C(=O)N(c2cc(C3(C)CC3)on2)C1O (stereo not shown) [A26] | 5 | 4 | 5 | 5 | 5 | 3 | 5 | 4 | 5 | 5 | 5 | 5 | 177 to 178 °C
6 | C=CCC(C)(C)c1cc(N2C(=O)C(Cl)=C(C)C2O)no1 (stereo not shown) [A28] | 5 | 4 | 5 | 5 | 4 | 2 | 5 | 5 | 5 | 5 | 5 | 4 | 107 to 109 °C
7 | CCC(C)(C)c1cc(N2C(=O)C(Cl)=C(C)C2O)no1 (stereo not shown) [A29] | 5 | 3 | 5 | 5 | 4 | 1 | 5 | 4 | 5 | 5 | 4 | 3 | 103 to 105 °C
8 | CC1=C(Cl)C(=O)N(c2cc(C(C)c3ccccc3)on2)C1O (stereo not shown) [A30] | 2 | 2 | 4 | 1 | 1 | 1 | 5 | 3 | 5 | 5 | 4 | 2 | 118 to 120 °C
9 | CC1=C(Cl)C(=O)N(c2noc(C(C)(C)C)c2C#N)C1O (stereo not shown) [A31, 5-tert-butyl-3-(4-chloro-2-hydroxy-3-methyl-5-oxo-2H-pyrrol-1-yl)isoxazole-4-carbonitrile] | 5 | 3 | 5 | 5 | 5 | 3 | 5 | 5 | 5 | 5 | 5 | 4 | 174 to 176 °C
10 | C=CCOCC(C)(C)c1cc(N2C(=O)C(Cl)=C(C)C2O)no1 (stereo not shown) [A33] | 3 | 2 | 5 | 4 | 3 | 3 | 5 | 4 | 5 | 5 | 4 | 5 | 66 to 68 °C
11 | CCOCC(C)(C)c1cc(N2C(=O)C(Cl)=C(C)C2O)no1 (stereo not shown) [A34] | 5 | 3 | 5 | 5 | 4 | 2 | 5 | 4 | 5 | 5 | 4 | 5 | 99 to 101 °C
12 | CC(C)=CCCc1cc(N2C(=O)C(Cl)=C(C)C2O)no1 (stereo not shown) [A35] | 1 | 1 | 3 | 0 | 0 | 0 | 4 | 1 | 5 | 2 | 0 | 1 | 72 to 74 °C
13 | CCOC(C)(C)CCCc1cc(N2C(=O)C(Cl)=C(C)C2O)no1 (stereo not shown) [A36] | 5 | 3 | 5 | 4 | 1 | 1 | 5 | 4 | 5 | 5 | 2 | 1 | 110 to 112 °C

Reference: patent US9936701B2, “Herbicidal compounds” (Syngenta Participations AG, priority 2013, dated 2018)
